Measured values as given in US10006913B2, “Fluorescent-HAP: a diagnostic stain for HBV cores in cells” (INDIANA UNIVERSITY RESEARCH AND TECHNOLOGY CORPORATION, priority 2013, dated 2018).

Columns and labels:
control HepG2 cells = assay: Fluorescence microscopy of stained control cells (FIG. 4); assay type: cell-based; conditions: camera on high gain
Excerpt: (§1) Various forms of FL-HAP may be synthesized thereby varying the resulting solubility properties of the fluorescent stain. The more soluble forms are particularly useful for observing HBV cores in solution or serum; they may also be useful for lightly staining intracellular HBV cores. The ability of the illustrative FL-HAP compound, FL-HAPAlexaFluor® 488 (Compound 5), to cross cell membranes and label HBV-expressing cells and, specifically, to label concentrations of HBV cores in those cells, is shown in FIG. 4. […] The more hydrophobic forms of FL-HAP (e.g., Compound 6 and Compound 7) are particularly useful for rapid staining of tissue samples.

HBV core protein (Cp) = HBV core protein (Cp) (Hepatitis B virus genotype D subtype ayw, UniProt P03146); assay: HBV core protein (Cp) assembly rate, assembly induced by NaCl (FIG. 1); assay type: biochemical; conditions: 5 μM Cp, assembly induced with 150 mM NaCl, increasing concentration of stain
HBV core protein (Cp), sequence (P03146 whole entry): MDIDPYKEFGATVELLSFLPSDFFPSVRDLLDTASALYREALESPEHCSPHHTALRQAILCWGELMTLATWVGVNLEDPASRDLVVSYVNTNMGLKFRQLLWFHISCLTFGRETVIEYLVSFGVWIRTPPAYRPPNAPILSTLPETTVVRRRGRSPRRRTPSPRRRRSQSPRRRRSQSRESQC
Description: In this experiment, 5 μM Cp was incubated with or without FL-HAPAlexaFluor® 488 (Compound 5) prior to inducing assembly by addition of 150 mM NaCl.
(§2) FL-HAPAlexaFluor® 488 (Compound 5) retains several critical properties of HAP molecules. […] Most importantly, FL-HAPAlexaFluor® 488 (Compound 5) binds pre-assembled cores with high affinity.

HBV capsid / Cp dimer = HBV capsid / Cp dimer (Hepatitis B virus genotype D subtype ayw, UniProt P03146); assay: Size exclusion chromatography (Superose 6) of Cp assembly reactions (FIG. 2); assay type: binding
HBV capsid / Cp dimer, sequence (P03146 whole entry): as above
Description: In this experiment, 5 μM Cp was mixed with FL-HAPAlexaFluor® 488 (Compound 5) and then induced to assemble with 150 mM NaCl. Reactions were resolved on a Superose 6 column after 24 hours. Capsid elutes at 9.5 ml, aggregates at 8 ml, and Cp dimer at 18 ml.
as §2

[1] = system: HepG2 cells expressing RNA-filled HBV cores; assay: Fluorescence microscopy of stained HBV-producing cells (FIG. 4); assay type: cell-based
Excerpt: as §1

HBV capsids = HBV capsids (Hepatitis B virus genotype D subtype ayw, UniProt P03146); assay: Staining of pre-assembled HBV capsids, sucrose gradient and agarose gel electrophoresis (FIG. 3); assay type: binding
HBV capsids, sequence (P03146 whole entry): as above
Description: Shown at left: Capsids stained with FL-HAPAlexaFluor® 488 (Compound 5) were separated on a sucrose gradient. […] Shown at right: Capsids, at the listed concentration, were stained with 25 nM FL-HAPAlexaFluor® 488 (Compound 5) prior to electrophoresis.
as §2

capsid protein of HBV = capsid protein of HBV (Hepatitis B virus genotype D subtype ayw, UniProt P03146); assay: Binding to the capsid protein of HBV (general statement)
capsid protein of HBV, sequence (P03146 whole entry): as above

Compound	fluorescent labeling of cells (control HepG2 cells)	effect on core protein assembly rate (HBV core protein (Cp))	extent of assembly and size of complexes (HBV capsid / Cp dimer; 5 μM Cp, 150 mM NaCl, Superose 6 column after 24 hours, increasing stain)	free HBV dimer remaining (HBV capsid / Cp dimer; SEC, as stain is added)	formation of aberrant particles (HBV capsid / Cp dimer; light scattering in excess of free capsid, products run faster on SEC than capsid)	copies bound per HBV capsid (HBV capsid / Cp dimer; ratio of protein to fluorophore absorbance across SEC peaks)	species bound by the stain (capsid vs dimer) (HBV capsid / Cp dimer; visualized at 495 nm)	fluorescent labeling of cells ([1]; HepG2 cells expressing RNA-filled HBV cores)	co-localization of fluorescence with Cp-specific antibodies ([1]; data not shown)	dissociation from HBV capsids (HBV capsids)	affinity for pre-assembled HBV cores (HBV capsids; SEC, sucrose gradient, agarose gel)	binding to capsids on electrophoresis (HBV capsids; capsids stained with 25 nM stain prior to electrophoresis, non-equilibrium conditions)	binding to the capsid protein of HBV (capsid protein of HBV)
COC(=O)C1=C(CN2CCN(C(=O)CCCNC(=O)c3ccc(-c4c5ccc(=N)c(S(=O)(=O)O)c-5oc5c(S(=O)(=O)O)c(N)ccc45)c(C(=O)O)c3)CC2)NC(c2ccccn2)=NC1c1ccc(F)cc1Cl (stereo not drawn) [Compound 5]	no green puncta are seen	accelerates core protein assembly	more assembly of progressively larger complexes	progressively less free HBV dimer	leads to formation of aberrant particles	approximately 120 copies	only assembled Cp (i.e., capsid) is bound	numerous puncta and aggregates of puncta are seen	co-localize with Cp-specific antibodies	dissociates slowly	high affinity	binding was evident at nM concentrations	specific binding
COC(=O)C1=C(CN2CCN(C(=O)CCCNC(=S)Nc3ccc(-c4c5ccc(=O)cc-5oc5cc(O)ccc45)c(C(=O)O)c3)CC2)NC(c2ccccn2)=NC1c1ccc(F)cc1Cl (stereo not drawn) [Compound 6]	–	–	–	–	–	–	–	–	–	–	–	–	specific binding
COC(=O)C1=C(CN2CCN(C(=O)CCCNC(=O)CCC3=[N+]4C(=Cc5c(C)cc(C)n5[B-]4(F)F)C=C3)CC2)NC(c2ccccn2)=NC1c1ccc(F)cc1Cl (stereo not drawn) [Compound 7]	–	–	–	–	–	–	–	–	–	–	–	–	specific binding
